In series [1] the test system is S. mansoni schistosomula. The series is described as follows: Schistosomula screens (Roboworm, phenotype and motility). The settings on record: 72 h. Type of series: cell-based, Schistosoma mansoni. The protocol: Anthelmintic activity on the schistosomula stage of S. mansoni was evaluated using Roboworm, an integrated high-throughput, high content image analysis platform originally developed by Paveley et al. and subsequently used by our research group as previously described, [28], [50], [51]. Alternatively, the computer application Worminator can be used to assess motion of microscopic parasites such as the schistosomula stage of S. mansoni. Compounds (as single concentration or two-fold titrations) were prepared for screening in a 384-well plate (PerkinElmer, MA, USA), where solutions (1.6 mM, 0.5 μl) were wet stamped using the Biomek NX ^P liquid handling platform into Basch medium (20 μl). Negative (0.625% DMSO) and positive (Auranofin - AUR - at 10 µM final concentration in 0.625% DMSO) control wells were similarly prepared. Mechanically transformed schistosomula (about 120 parasites in 60 μl of Basch medium) were distributed into each treated well using a WellMate (Thermo Scientific, Loughborough, UK). Schistosomula/compound co-cultures were then incubated at 37°C for 72 h in a humidified atmosphere containing 5% CO 2. At 72 h, parasite/compound co-cultures were resuspended and tissue culture plates were imaged under the same conditions (37°C for 72 h in a humidified atmosphere containing 5% CO 2) using an ImageXpressXL high content imager (Molecular Devices, UK) with subsequent images processed for phenotype and motility as previously reported. Plate analysis returned a phenotype and motility score for each well and any scores below -0.15 and -0.35 (defined threshold anti-schistosomula values for phenotype and motility scores, respectively) defined a condition displaying anti-schistosomula activity. Compound screens were assessed based on the Z´ values (derived from the means and standard deviations of positive and negative controls) and those equal to or above 0.3 for both phenotype and motility were considered successful.
Phenotype and motility scores of each titration were used to generate dose response curves in GraphPad Prism 7.02 based on the corrected average score of the three replicates for each data point.

The nature of series [2]: MTT cytotoxicity assay on HepG2 cells. Format: cell-based, Human. The settings on record: human, HepG2 cells, MTT, 24 h; three dose response titrations (200 - 1 µM). The protocol: Compound cytotoxicity on Human Hepatocyte Carcinoma (HepG2) cells (85011430, Sigma Aldrich) was elucidated by the MTT (3-(4,5-dimethylthiazol-2-yl)-2,5-diphenyltetrazolium bromide) tetrazolium reduction assay as previously described, [28], [50]. Briefly, HepG2 cells were seeded at a density of 20,000 per well in 96-well black, clear bottom falcon plate in modified BME medium (50 μl; containing 1% antibiotic/mycotic (Sigma-Aldrich, Gillingham, UK), 1% 200 mM L-glutammine (Gibco, Paisley, UK), 1% MEM non-essential amino acid solution (Gibco, Paisley, UK), and 10% fetal bovine serum (Gibco, Paisley, UK)). HepG2 plates seeded for cytotoxicity screens were treated with compounds 24 h post-seeding. Each compound was tested at 200, 100, 75, 50, 20, 10 and 1 µM; each concentration was assayed in triplicate. Blank wells (no cells), as well as positive (1% v/v Triton X-100, X100, Sigma-Aldrich) and negative (1.25% v/v DMSO or media only) controls, were included in each plate. After addition of compounds, each plate was then incubated for a further 20 h before application of MTT reagent for assessment of compound cytotoxicity (4 h incubation with MTT for a total 24 h cell-drug incubation). The absorbance reading at 570 nm was measured with a POLARstar Omega (BMG Labtech, UK) microtiter plate reader. Dose response curves were generated in GraphPad Prism 7.02 based on the corrected average absorbance of the three replicates for each concentration point.

The subject of series [3] is S. mansoni adult worms. The series is described as follows: Scanning electron microscopy of compound damage on adult worms. Type of series: cell-based, Schistosoma mansoni. The conditions noted are these: 12.50 µM (sub-lethal), 72 h. The protocol:
Following 72 h of drug treatment, the cultured S. mansoni adult worms were collected, separated by sex and relaxed with tricaine anaesthetic solution (0.25% w/v of ethyl 3-aminobenzoate methane sulfonate - Tricaine, E10521, Sigma Aldrich - in DMEM). The samples were incubated by gently rocking for 15 min or until parasites relaxed and separated. The parasites were then killed by incubation in a solution of […] magnesium chloride (MgCl 2) for 1 min. Afterwards, adult schistosome worms were briefly washed with pre-warmed 1X PBS and then fixed using appropriate solutions for analysis by scanning electron microscopy (SEM) as previously described in literature, [61], [62].
Post fixation, adult schistosomes were stored at 4°C until washing with 0.1 M sodium cacodylate was performed (2 x 30 min each). The worms were then stained with 1% v/v osmium tetroxide water solution (stored at -20°C and pre-warmed at room temperature prior to use) for 2 h and then washed with 0.1 M sodium cacodylate for 30 min. Following staining, worms were dehydrated with an aqueous alcohol series (30, 50, 70, 95 and 100% ethanol in ultra-pure water) by agitating gently on a rocker for 30 min per solution. At the final step, the samples were left in 100% ethanol overnight before being dried with hexamethyldisilazane critical drying point agent (AGR1228, Agar Scientific, Stansted, UK) for at least 3 h. […]

The values that follow come from paper PMC7459852, “Identification of 6-(piperazin-1-yl)-1,3,5-triazine as a chemical scaffold with broad anti-schistosomal activities” (Wellcome Open Research, 2020).

Like-named read-outs stand apart in the source and are kept apart here.

In general, EC50 refers to the concentration at which the effect is half-maximal. A word on the CC50: it is the concentration giving 50% cytotoxicity. The low end stands for greater toxicity to the cells, the high end for lower toxicity to the cells. With `c1ccc(Nc2nc(N3CCCC3)nc(N3CCNCC3)n2)cc1` [Compound 7], the “anti-schistosomula activity (hit on phenotype and motility)” value in series [1] (10 µM) was “remaining active”; in series [1] (50 µM), “showed anti-schistosomal activity”. For the same compound, the EC50 was found to be 5.54 µM in series [1] (Schistosoma mansoni, average of phenotype and motility metrics, read-out: Schistosomula EC50 Average); 5.03 µM in series [1] (Schistosoma mansoni, dose response titrations (10 - 0.625 µM), read-out: Schistosomula EC50 Motility); 5.65 µM in series [1] (Schistosoma mansoni, dose response titrations (10 - 0.625 µM), read-out: Schistosomula EC50 Phenotype); 5.34 µM in series [1] (average of phenotype and motility metrics, read-out: Schistosomula EC50 Average). In addition, the schistosomula phenotype induced entry in series [1] (both 50 and 10 µM) is “swollen with some individuals additionally displaying posterior end compression”. Besides, it took 13.7 µM to reach half-maximal cytotoxicity in series [2] (CC50 at 24 h). In addition, the “morphological changes of adult worms by SEM” value in series [3] is “partial loss of tubercles and spines as well as tegument erosion”.
